Measurements: paper PMC8326056 (Journal of Animal Science, 2021)
Entries after “also recorded” stand apart in the source; their conditions may differ.

Legend:
bovine β 2-AR = target: T1, bovine β 2-AR (Bos taurus, UniProt Q28044); assay: cAMP induction in CHO cells transfected with bovine β 2-AR construct (LANCE cAMP kit); type: cell-based; conditions: 45 min, 5 mM theophylline, ND = cAMP not detected or insufficient for EC50
T1 construct: expressed in transfected cells; host or cells: Chinese hamster ovary (CHO) cells, pcDNA3.1+ vector
T1 sequence (Q28044 whole entry): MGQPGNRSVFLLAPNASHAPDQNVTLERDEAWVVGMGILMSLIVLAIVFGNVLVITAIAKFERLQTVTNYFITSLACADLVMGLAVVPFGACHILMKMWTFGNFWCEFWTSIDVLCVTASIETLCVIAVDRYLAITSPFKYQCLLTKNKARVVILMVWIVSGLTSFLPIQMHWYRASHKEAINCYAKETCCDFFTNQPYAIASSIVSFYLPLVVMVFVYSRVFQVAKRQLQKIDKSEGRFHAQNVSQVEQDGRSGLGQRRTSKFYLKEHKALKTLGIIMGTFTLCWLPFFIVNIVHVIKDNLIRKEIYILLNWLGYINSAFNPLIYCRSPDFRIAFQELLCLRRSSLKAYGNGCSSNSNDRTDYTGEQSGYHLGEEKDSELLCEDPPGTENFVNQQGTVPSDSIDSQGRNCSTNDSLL
Protocol: All samples and standards were tested in duplicate for each repetition, and 4 repetitions per cell line were performed for each potential ligand tested. Controls included no treatment (media alone), 5 mM theophylline alone (an inhibitor of phosphodiesterase), 0.1 % DMSO alone, and water alone. […] A volume of media equal to the volume of test material to be added was removed from the well just prior to stimulation. Theophylline was added in a volume of 25 µL to obtain a final concentration of 5 mM and each test molecule was delivered in 10 µL. […] The reaction was incubated for 20 hr prior to measuring fluorescence. […]

[1] = test system: bovine i.m. adipose tissue; assay: Lipolysis: glycerol release, i.m. adipose tissue explants; type: cell-based, bovine (Angus cross steers); conditions: i.m. adipose tissue, 30 min
bovine β 3-AR = target: T2, bovine β 3-AR (Bos taurus, UniProt P46626); assay: cAMP induction in CHO cells transfected with bovine β 3-AR construct (LANCE cAMP kit); type: cell-based; conditions: 45 min, 5 mM theophylline
T2 construct: expressed in transfected cells; host or cells: Chinese hamster ovary (CHO) cells, pcDNA3.1+ vector
T2 sequence (P46626 whole entry): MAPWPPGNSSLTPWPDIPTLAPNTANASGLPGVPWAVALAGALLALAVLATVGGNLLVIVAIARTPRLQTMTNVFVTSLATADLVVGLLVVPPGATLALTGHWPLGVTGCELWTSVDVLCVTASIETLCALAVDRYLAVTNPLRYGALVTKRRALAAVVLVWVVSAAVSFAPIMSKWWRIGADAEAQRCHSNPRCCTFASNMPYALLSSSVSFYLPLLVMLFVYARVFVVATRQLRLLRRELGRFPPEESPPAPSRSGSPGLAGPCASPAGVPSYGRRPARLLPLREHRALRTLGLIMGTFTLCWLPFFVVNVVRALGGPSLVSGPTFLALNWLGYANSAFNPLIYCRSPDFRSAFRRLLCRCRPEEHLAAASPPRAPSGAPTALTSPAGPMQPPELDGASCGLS
Protocol: (§1) Chinese Hamster Overy cells were transfected with either the bovine β 1-, β 2-, or β 3-AR constructs in pcDNA3.1+. Expression of the β-AR was confirmed by polymerase chain reaction (PCR). Thereafter, cells were grown in DMEM/Ham’s F12 media with 10% FBS and 1% penicillin/streptomycin at 37 °C under 5% CO2. Opti-plates (Perkin Elmer, Waltham, MA) were used for all experiments. For each experiment, cells were plated into 96-well tissue culture plates at 60,000 cells per well in a volume of 100 µL media. Cells were grown for 48 hr after plating prior to ligand addition and determination of cAMP.
(§2) All samples and standards were tested in duplicate for each repetition, and 4 repetitions per cell line were performed for each potential ligand tested. Controls included no treatment (media alone), 5 mM theophylline alone (an inhibitor of phosphodiesterase), 0.1 % DMSO alone, and water alone. None of the controls differed from media alone and are thus not reported. A volume of media equal to the volume of test material to be added was removed from the well just prior to stimulation. Theophylline was added in a volume of 25 µL to obtain a final concentration of 5 mM and each test molecule was delivered in 10 µL. Cells were returned to 37 °C and allowed to incubate for 45 min before media was removed and the cells lysed in 38 µL lysis buffer A. The LANCE cAMP detection kit (AD0262E) was purchased from Perkin Elmer. The LANCE assay instructions were followed for a 40 µL reaction volume with 15 µL of cell lysate. The reaction was incubated for 20 hr prior to measuring fluorescence. A standard curve was generated with increasing concentrations of cAMP, and the linear portion of the curve was used to calculate sample cAMP concentrations.

[2] = test system: bovine s.c. adipose tissue; assay: cAMP in s.c. adipose tissue explants (Cyclic AMP XP Assay Kit); type: cell-based, bovine (Angus cross steers)
Protocol: (§3) Fresh s.c. adipose tissue was cut into small pieces (50 to 100 mg, actual weight recorded) and i.m. adipose tissue was dissected from the LM as described previously ([Smith and Crouse, 1984]; [Miller et al., 1988]) and weighed. The s.c. and i.m. adipose samples were incubated according to 3 different sets of experimental conditions. Experiment 1: Small pieces of s.c. and i.m. adipose tissues (50 to 100 mg; 1 to 2 mm thick; [Smith and Prior, 1981]) were preincubated in 6-well tissue culture plates in a CO2/O2 incubator (NuAire model 4750 CO2 incubator, Plymouth, MN) for 30 min at 37 °C, 5% CO2 in KHB plus 5 mM glucose, 10 mM HEPES, and 0.5 mM theophylline. […] Experiment 2: The s.c. and i.m. adipose samples were preincubated in KHB plus 5 mM glucose, 10 mM HEPES, and 0.5 mM theophylline in the presence or absence of either 10 µM L-748,337 (β 3-AR antagonist) or 50 µM PRO (β-AR pan-antagonist). […] After the 30 min preincubation, either DOB (β 1-AA) or SAL (β 2-AA) was added to the culture plate wells in a concentration-dependent manner (10^–9 to 10^–4 M) for an additional 30 min. For all experiments, there were at least 3 replicate wells per treatment condition. After a total of 1-hr incubation, the adipose samples were homogenized in 1 mL cell lysis buffer (Cell Signaling Technology, Danvers, MA) with 1 mM phenymethylsulfony fluoride, and centrifuged at 14,000 × g for 30 min to remove tissue debris. The supernatant fractions were stored at −80 °C until subsequent analyses were performed.
(§4) The concentration of cAMP was determined based on the principle of competitive binding using the Cyclic AMP XP Assay Kit according to the manufacturer’s instructions. Cytosolic extracts from the adipose explants were co-incubated at room temperature for 3 hr in 96-well plates with the HRP-linked cAMP substrate coated onto an immobilized rabbit monoclonal cAMP antibody using a horizontal orbital plate shaker. After the reaction, color development was measured at 450 nm using an Epoch microplate reader (Biotek Instruments, Winooski, VT). All samples were analyzed in duplicate. A standard curve and cAMP concentrations were calculated using GrapPad Prism 6.04 software (GraphPad Software Inc., San Diego, CA).

[3] = test system: bovine i.m. adipose tissue; assay: Lipolysis: NEFA release, i.m. adipose tissue explants; type: cell-based, bovine (Angus cross steers); conditions: i.m. adipose tissue, 30 min
bovine β 1-AR = target: T3, bovine β 1-AR (Bos taurus, UniProt Q9TT96); assay: cAMP induction in CHO cells transfected with bovine β 1-AR construct (LANCE cAMP kit); type: cell-based; conditions: 45 min, 5 mM theophylline, ND = cAMP not detected or insufficient for EC50
T3 construct: expressed in transfected cells; host or cells: Chinese hamster ovary (CHO) cells, pcDNA3.1+ vector
T3 sequence (Q9TT96 whole entry): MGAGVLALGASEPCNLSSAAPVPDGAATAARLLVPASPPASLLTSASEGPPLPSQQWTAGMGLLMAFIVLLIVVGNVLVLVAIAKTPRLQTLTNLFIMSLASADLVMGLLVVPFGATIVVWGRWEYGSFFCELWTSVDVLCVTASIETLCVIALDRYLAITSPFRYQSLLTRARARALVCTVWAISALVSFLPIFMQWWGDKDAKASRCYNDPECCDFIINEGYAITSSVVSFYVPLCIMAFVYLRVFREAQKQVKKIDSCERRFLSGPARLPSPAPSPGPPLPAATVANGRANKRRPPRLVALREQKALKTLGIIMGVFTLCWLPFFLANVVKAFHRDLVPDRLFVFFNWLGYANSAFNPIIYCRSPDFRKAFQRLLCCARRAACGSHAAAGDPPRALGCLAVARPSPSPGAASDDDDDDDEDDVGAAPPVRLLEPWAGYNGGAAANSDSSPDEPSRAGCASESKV
Protocol: as §1, §2

[4] = test system: bovine s.c. adipose tissue; assay: Lipolysis: NEFA release, s.c. adipose tissue explants; type: cell-based, bovine (Angus cross steers); conditions: s.c. adipose tissue, 30 min
[5] = test system: bovine s.c. adipose tissue; assay: Lipolysis: glycerol release, s.c. adipose tissue explants; type: cell-based, bovine (Angus cross steers); conditions: s.c. adipose tissue, 30 min
[6] = test system: bovine i.m. adipose tissue; assay: cAMP in i.m. adipose tissue explants (Cyclic AMP XP Assay Kit); type: cell-based, bovine (Angus cross steers)
[7] = test system: bovine i.m. adipose tissue; assay: as above; type: cell-based, bovine (Angus cross steers); remark: listed apart in the source
Protocol: as §3, §4

[8] = s.c., pretreatment 1 µM LUB alone or with 10 µM L-748,337, P < 0.05

CC(C)(Cc1ccc(Oc2ncccc2C#N)cc1)NC[C@H](O)COc1ccccc1-c1cccs1.CC(C)(Cc1ccc(Oc2ncccc2C#N)cc1)NC[C@H](O)COc1ccccc1-c1cccs1.O=C(O)/C=C/C(=O)O [LUB, lubabegron fumarate]
Induction of cAMP (EC50), β 2-Construct (bovine β 2-AR): no detectible agonistic activity | Effect on glycerol release (in words) [1]: did not affect | EC50 (bovine β 3-AR): 0.006 µM | Effect on cAMP (in words) ([2]; s.c. adipose tissue, ligand alone, 30 min): Neither BRL-37344 nor LUB influenced cAMP or NEFA concentrations | Effect of LUB on cAMP production in tissue pretreated with antagonist ([2]; s.c., 30 min preincubation with 10 µM L-748,337, then LUB 10^–9 to 10^–4 M): reduced by LUB in a dose–response manner | Effect of LUB on cAMP production in tissue pretreated with antagonist ([2]; s.c., 30 min preincubation with 50 µM PRO, then LUB 10^–9 to 10^–4 M): reduced by LUB in a dose–response manner | Adipose tissue lipolytic sensitivity (−logEC50) to β-AR ligands, s.c. ([2]; s.c., cAMP readout, mean ± SEM, n = 12 cattle, combinations: preincubation with 1 µM LUB ± 10 µM L-748,337): 7.40 ± 1.78^2 | Effect on the EC50 of the SAL cAMP response ([2]; s.c., pretreatment 1 µM LUB alone or with 10 µM L-748,337, P < 0.0001): significantly increased | Effect on the maximal cAMP response to DOB [2, 8]: significantly diminished the maximal cAMP response | Effect on the maximal cAMP response to SAL [2, 8]: attenuated the maximal cAMP response | Effect on the EC50 of the cAMP response to DOB ([2]; s.c., pretreatment 1 µM LUB alone or with 10 µM L-748,337, P > 0.05): not a significant change | Effect on NEFA release (in words) [3]: did not affect; also recorded: not influenced | EC50 (bovine β 1-AR): 0.19 µM | Effect on NEFA release (in words) [4]: did not affect; also recorded: Neither BRL-37344 nor LUB influenced cAMP or NEFA concentrations | Effect on glycerol release (in words) [5]: did not affect | Effect of LUB on cAMP production in tissue pretreated with antagonist ([6]; 30 min preincubation with 10 µM L-748,337, then LUB): depressed cAMP production | Effect of LUB on cAMP production in tissue pretreated with antagonist ([6]; 30 min preincubation with 50 µM PRO, then LUB): no effect | Effect of LUB pretreatment on cAMP with DOB or SAL ([7]; i.m. adipose explants, 1 µM LUB): without effect | Adipose tissue lipolytic sensitivity (−logEC50) to β-AR ligands, i.m. ([7]; i.m., cAMP readout, mean ± SEM, n = 12 cattle, combinations: preincubation with 1 µM LUB ± 10 µM L-748,337, N.A. = not possible to calculate EC50): not demonstrable
